Holding throughout (type): functional, cell-based
For experiment [1], the system named is A549. The experiment in a line: Concentration required to inhibit growth of human tumor A549 (NSCL) cell line.
For experiment [2], the system named is A121. The experiment in a line: Concentration required to inhibit growth of human tumor A121 (ovarian) cell line.
Experiment [3] has as its system HT-29. The experiment in a line: Concentration required to inhibit growth of human tumor HT-29 (colon) cell line.
The test system of experiment [4] is MCF7. The experiment in a line: Concentration required to inhibit growth of human tumor MCF-7 (breast) cell line.
In experiment [5] the test system is MCF7. Briefly: Concentration required to inhibit growth of human tumor […] (breast) cell line.

As for `CC(=O)O[C@@]12CO[C@@H]1C[C@H](O)[C@@]1(C)C(=O)[C@H](OC(=O)NC3CCCCC3)C3=C(C)[C@@H](OC(=O)[C@H](O)[C@H](C=C(C)C)NC(=O)OC(C)(C)C)C[C@@](O)([C@@H](OC(=O)c4ccccc4)[C@H]21)C3(C)C`, the IC50 worked out at 0.2 nM in experiment [1]; 0.28 nM in experiment [2]; 0.46 nM in experiment [3]; 0.33 nM in experiment [4]; 48 nM in experiment [5].
For `CC(=O)O[C@@]12CO[C@@H]1C[C@H](O)[C@@]1(C)C(=O)[C@H](OC(=O)N3CCOCC3)C3=C(C)[C@@H](OC(=O)[C@H](O)[C@H](C=C(C)C)NC(=O)OC(C)(C)C)C[C@@](O)([C@@H](OC(=O)c4ccccc4)[C@H]21)C3(C)C`, the half-inhibitory concentration (IC50) worked out at 0.22 nM in experiment [1]; 0.09 nM in experiment [2]; 0.18 nM in experiment [3]; 0.09 nM in experiment [4]; 12.5 nM in experiment [5].
Consider `CC(=O)O[C@H]1C(=O)[C@@]2(C)[C@H]([C@H](OC(=O)c3ccccc3)[C@]3(O)C[C@H](OC(=O)[C@H](O)[C@H](CC(C)C)NC(=O)OC(C)(C)C)C(C)=C1C3(C)C)[C@]1(OC(C)=O)CO[C@@H]1C[C@@H]2O`, for which the IC50 in experiment [1] came out at 0.98 nM; in experiment [2], 3.8 nM; in experiment [3] it was 3.2 nM; in experiment [4], 4 nM; in experiment [5] it was 36 nM.
On the same counts, the results for `C/C=C/C(=O)O[C@H]1C(=O)[C@@]2(C)[C@H]([C@H](OC(=O)c3ccccc3)[C@]3(O)C[C@H](OC(=O)[C@H](O)[C@H](C=C(C)C)NC(=O)OC(C)(C)C)C(C)=C1C3(C)C)[C@]1(OC(C)=O)CO[C@@H]1C[C@@H]2O` are 1.7 nM, 0.45 nM, 0.6 nM, 0.26 nM and 3.4 nM.
As to `CC(=O)O[C@@]12CO[C@@H]1C[C@H](O)[C@@]1(C)C(=O)[C@H](OC(=O)C3CC3)C3=C(C)[C@@H](OC(=O)[C@H](O)[C@H](C=C(C)C)NC(=O)OC(C)(C)C)C[C@@](O)([C@@H](OC(=O)c4ccccc4)[C@H]21)C3(C)C`, the half-maximal inhibitory concentration (IC50) in experiment [1] amounted to 0.57 nM; in experiment [2], 0.26 nM; in experiment [3] it was 0.36 nM; in experiment [4], 0.2 nM; in experiment [5], 2.1 nM.
As to `CC(=O)O[C@@]12CO[C@@H]1C[C@H](O)[C@@]1(C)C(=O)[C@H](OC(=O)N(C)C)C3=C(C)[C@@H](OC(=O)[C@H](O)[C@H](CC(C)C)NC(=O)OC(C)(C)C)C[C@@](O)([C@@H](OC(=O)c4ccccc4)[C@H]21)C3(C)C`, the half-inhibitory concentration (IC50) in experiment [1] stood at 0.5 nM; in experiment [2], 0.4 nM; in experiment [3], 0.6 nM; in experiment [4] it was 0.36 nM; in experiment [5], 5.8 nM.
For `CC(=O)O[C@@]12CO[C@@H]1C[C@H](O)[C@@]1(C)C(=O)[C@H](OC(=O)N(C)C)C3=C(C)[C@@H](OC(=O)[C@H](O)[C@H](C=C(C)C)NC(=O)OC(C)(C)C)C[C@@](O)([C@@H](OC(=O)c4ccccc4)[C@H]21)C3(C)C`, the half-maximal inhibitory concentration (IC50) in experiment [1] was determined as 0.6 nM; in experiment [2], 0.3 nM; in experiment [3], 0.5 nM; in experiment [4], 0.13 nM; in experiment [5], 4.9 nM.
The matching figures for `CO[C@H]1C(=O)[C@@]2(C)[C@H]([C@H](OC(=O)c3ccccc3)[C@]3(O)C[C@H](OC(=O)[C@H](O)[C@H](CC(C)C)NC(=O)OC(C)(C)C)C(C)=C1C3(C)C)[C@]1(OC(C)=O)CO[C@@H]1C[C@@H]2O`: 0.6 nM, 0.7 nM, 0.6 nM, 0.33 nM and 214 nM.
On the same counts, the results for `CO[C@H]1C(=O)[C@@]2(C)[C@H]([C@H](OC(=O)c3ccccc3)[C@]3(O)C[C@H](OC(=O)[C@H](O)[C@H](C=C(C)C)NC(=O)OC(C)(C)C)C(C)=C1C3(C)C)[C@]1(OC(C)=O)CO[C@@H]1C[C@@H]2O` are 0.9 nM, 0.7 nM, 0.9 nM, 0.37 nM and 123 nM.
On the same counts, the results for `CCCCC(=O)O[C@H]1C(=O)[C@@]2(C)[C@H]([C@H](OC(=O)c3ccccc3)[C@]3(O)C[C@H](OC(=O)[C@H](O)[C@H](C=C(C)C)NC(=O)OC(C)(C)C)C(C)=C1C3(C)C)[C@]1(OC(C)=O)CO[C@@H]1C[C@@H]2O` are 0.6 nM, 0.6 nM, 0.6 nM, 0.5 nM and 30 nM.
Turning to `C=CCNC(=O)O[C@H]1C(=O)[C@@]2(C)[C@H]([C@H](OC(=O)c3ccccc3)[C@]3(O)C[C@H](OC(=O)[C@H](O)[C@H](C=C(C)C)NC(=O)OC(C)(C)C)C(C)=C1C3(C)C)[C@]1(OC(C)=O)CO[C@@H]1C[C@@H]2O`, the IC50 in experiment [1] worked out at 0.35 nM; in experiment [2], 0.44 nM; in experiment [3], 0.53 nM; in experiment [4] it was 0.44 nM; in experiment [5], 76 nM.
On to `CC(=O)O[C@@]12CO[C@@H]1C[C@H](O)[C@@]1(C)C(=O)[C@H](OC(=O)NC3CCCCC3)C3=C(C)[C@@H](OC(=O)[C@H](O)[C@H](CC(C)C)NC(=O)OC(C)(C)C)C[C@@](O)([C@@H](OC(=O)c4ccccc4)[C@H]21)C3(C)C`, for which the IC50 in experiment [1] came to 3.7 nM; in experiment [2], 5 nM; in experiment [3], 5 nM; in experiment [4], 1.6 nM; in experiment [5] it was 33 nM.
On to `COC(=O)O[C@H]1C(=O)[C@@]2(C)[C@H]([C@H](OC(=O)c3ccccc3)[C@]3(O)C[C@H](OC(=O)[C@H](O)[C@H](CC(C)C)NC(=O)OC(C)(C)C)C(C)=C1C3(C)C)[C@]1(OC(C)=O)CO[C@@H]1C[C@@H]2O`, for which the IC50 was determined as 0.35 nM in experiment [1]; 0.18 nM in experiment [2]; 0.44 nM in experiment [3]; 0.28 nM in experiment [4]; 6.4 nM in experiment [5].
For `CCNC(=O)O[C@H]1C(=O)[C@@]2(C)[C@H]([C@H](OC(=O)c3ccccc3)[C@]3(O)C[C@H](OC(=O)[C@H](O)[C@H](C=C(C)C)NC(=O)OC(C)(C)C)C(C)=C1C3(C)C)[C@]1(OC(C)=O)CO[C@@H]1C[C@@H]2O`, the 50% inhibitory concentration (IC50) in experiment [1] was determined as 0.15 nM; in experiment [2], 0.29 nM; in experiment [3], 0.41 nM; in experiment [4], 0.31 nM; in experiment [5], 162 nM.
In the case of `CCCNC(=O)O[C@H]1C(=O)[C@@]2(C)[C@H]([C@H](OC(=O)c3ccccc3)[C@]3(O)C[C@H](OC(=O)[C@H](O)[C@H](C=C(C)C)NC(=O)OC(C)(C)C)C(C)=C1C3(C)C)[C@]1(OC(C)=O)CO[C@@H]1C[C@@H]2O`, the IC50 in experiment [1] was determined as 0.22 nM; in experiment [2] it was 0.34 nM; in experiment [3] it was 0.55 nM; in experiment [4], 0.36 nM; in experiment [5], 87 nM.
The matching figures for `COC(=O)O[C@H]1C(=O)[C@@]2(C)[C@H]([C@H](OC(=O)c3ccccc3)[C@]3(O)C[C@H](OC(=O)[C@H](O)[C@H](C=C(C)C)NC(=O)OC(C)(C)C)C(C)=C1C3(C)C)[C@]1(OC(C)=O)CO[C@@H]1C[C@@H]2O`: 0.32 nM, 0.23 nM, 0.3 nM, 0.14 nM and 5.3 nM.
On the same counts, the results for `CCC(=O)O[C@H]1C(=O)[C@@]2(C)[C@H]([C@H](OC(=O)c3ccccc3)[C@]3(O)C[C@H](OC(=O)[C@H](O)[C@H](CC(C)C)NC(=O)OC(C)(C)C)C(C)=C1C3(C)C)[C@]1(OC(C)=O)CO[C@@H]1C[C@@H]2O` are 0.53 nM, 0.41 nM, 0.53 nM, 0.35 nM and 2.8 nM.
In turn, `CC(=O)O[C@H]1C(=O)[C@@]2(C)[C@H]([C@H](OC(=O)c3ccccc3)[C@]3(O)C[C@H](OC(=O)[C@H](O)[C@@H](NC(=O)c4ccccc4)c4ccccc4)C(C)=C1C3(C)C)[C@]1(OC(C)=O)CO[C@@H]1C[C@@H]2O` [PACLITAXEL] showed an IC50 in experiment [2] of 6.3 nM.
As to `CNC(=O)O[C@H]1C(=O)[C@@]2(C)[C@H]([C@H](OC(=O)c3ccccc3)[C@]3(O)C[C@H](OC(=O)[C@H](O)[C@H](C=C(C)C)NC(=O)OC(C)(C)C)C(C)=C1C3(C)C)[C@]1(OC(C)=O)CO[C@@H]1C[C@@H]2O`, the IC50 in experiment [1] came to 0.7 nM; in experiment [2] it was 1.2 nM; in experiment [3], 1.2 nM; in experiment [4], 0.4 nM; in experiment [5], 20 nM.
As for `CC(=O)O[C@@]12CO[C@@H]1C[C@H](O)[C@@]1(C)C(=O)[C@H](OC(=O)C3CC3)C3=C(C)[C@@H](OC(=O)[C@H](O)[C@H](CC(C)C)NC(=O)OC(C)(C)C)C[C@@](O)([C@@H](OC(=O)c4ccccc4)[C@H]21)C3(C)C`, the IC50 amounted to 1.1 nM in experiment [1]; 0.51 nM in experiment [2]; 0.78 nM in experiment [3]; 0.51 nM in experiment [4]; 4.3 nM in experiment [5].
Regarding `CCCCCC(=O)O[C@H]1C(=O)[C@@]2(C)[C@H]([C@H](OC(=O)c3ccccc3)[C@]3(O)C[C@H](OC(=O)[C@H](O)[C@H](C=C(C)C)NC(=O)OC(C)(C)C)C(C)=C1C3(C)C)[C@]1(OC(C)=O)CO[C@@H]1C[C@@H]2O`, the half-maximal inhibitory concentration (IC50) in experiment [1] is 0.57 nM; in experiment [2], 0.5 nM; in experiment [3], 0.9 nM; in experiment [4], 0.4 nM; in experiment [5] it was 17.3 nM.
On the same counts, the results for `CC(=O)O[C@@]12CO[C@@H]1C[C@H](O)[C@@]1(C)C(=O)[C@H](OC(=O)C3CCCCC3)C3=C(C)[C@@H](OC(=O)[C@H](O)[C@H](C=C(C)C)NC(=O)OC(C)(C)C)C[C@@](O)([C@@H](OC(=O)c4ccccc4)[C@H]21)C3(C)C` are 0.75 nM, 0.5 nM, 1.05 nM, 0.46 nM and 22.3 nM.
The matching figures for `CC(=O)O[C@@]12CO[C@@H]1C[C@H](O)[C@@]1(C)C(=O)[C@H](OC(=O)CC(C)C)C3=C(C)[C@@H](OC(=O)[C@H](O)[C@H](C=C(C)C)NC(=O)OC(C)(C)C)C[C@@](O)([C@@H](OC(=O)c4ccccc4)[C@H]21)C3(C)C`: 0.4 nM, 0.6 nM, 0.6 nM, 0.4 nM and 8.5 nM.

One may read the IC50 as the concentration needed to halve the response being measured. Low readings indicate inhibition by little substance, high ones a need for much substance.
